Experimental findings from patent publication US20250368649A1, “TETRAHYDROPYRIDOPYRIMIDINE PAN-KRAS INHIBITORS” (Mirati Therapeutics, Inc., priority 2022, published 2025) are described below.

SMILES strings stand for the structures. A value given as a limit tells only on which side of the number the result lay.

For one assay, the target named is KRas G12R (Homo sapiens, UniProt P01116, G12R). Nature of the assay: biochemical. As to conditions: Binding to KRas (IC50 nM) G12R, TR-FRET displacement, KRas G12R. (In general: Time-resolved FRET reads energy transfer from a long-lived donor to a nearby acceptor.)
For the next assay, the system named is PSN1 cells. The assay can be described thus: Inhibition of KRas-mediated phosphorylation of ERK (Cisbio HTRF pERK), PSN1 cells. Type of assay: cell-based. The following applies: Homo sapiens, PSN1, 3 h. In short, it runs like this:
(§1)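 Growth medium is RPMI with 10% FBS, and each well receives 6,000 cells on the first day of the protocol.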

The test system of a further assay is H460 cells. Nature of the assay: Inhibition of KRas-mediated phosphorylation of ERK (Cisbio HTRF pERK), H460 cells. Type of assay: cell-based. As to conditions: Homo sapiens; for IC50: NCI-H460, 3 h, 3 hr compound incubation; for inhibition at 0.1 µM: NCI-H460, single point at 100 nM, 3 hrs compound incubation.
Another assay has as its system H358 cells. Nature of the assay: Inhibition of KRas-mediated phosphorylation of ERK (Cisbio HTRF pERK), H358 cells. It is filed as cell-based. The following applies: Homo sapiens; for IC50: NCI-H358, 3 h, 3 hr compound incubation; for inhibition at 0.1 µM: NCI-H358, single point at 100 nM, 3 hrs compound incubation.
The subject of the next assay is MKN1 cells. Nature of the assay: Inhibition of KRas-mediated phosphorylation of ERK (Cisbio HTRF pERK), MKN1 cells. Type of assay: cell-based. The following applies: Homo sapiens. In outline: as §1
A further assay concerns the target KRas G12D (Homo sapiens, UniProt P01116, G12D). Nature of the assay: biochemical. As to conditions: Binding to KRas (IC50 nM) G12D, TR-FRET displacement, KRas G12D.
The subject of another assay is H727 cells. Nature of the assay: Inhibition of KRas-mediated phosphorylation of ERK (Cisbio HTRF pERK), H727 cells. It is filed as cell-based. As to conditions: Homo sapiens; for IC50: NCI-H727, 3 h, 3 hr compound incubation; for inhibition at 0.1 µM: NCI-H727, single point at 100 nM, 3 hrs compound incubation.
Another assay deals with KRas G12V (Homo sapiens, UniProt P01116, G12V). Nature of the assay: biochemical. The following applies: Binding to KRas (IC50 nM) G12V, TR-FRET displacement, KRas G12V.
For another assay, the system named is HCT116 cells. Nature of the assay: Inhibition of KRas-mediated phosphorylation of ERK (Cisbio HTRF pERK), HCT116 cells. It is filed as cell-based. The following applies: Homo sapiens; for IC50: HCT-116, 3 h, 3 hr compound incubation; for inhibition at 0.1 µM: HCT-116, single point at 100 nM, 3 hrs compound incubation.
The subject of a further assay is A549 cells. Nature of the assay: Inhibition of KRas-mediated phosphorylation of ERK (Cisbio HTRF pERK), A549 cells. Type of assay: cell-based. As to conditions: Homo sapiens; for IC50: A549, 3 h, 3 hr compound incubation; for inhibition at 0.1 µM: single point at 100 nM, 3 hrs compound incubation.
For a further assay, the system named is ASPC1 cells. The assay can be described thus: Inhibition of KRas-mediated phosphorylation of ERK (Cisbio HTRF pERK), ASPC1 cells. Type of assay: cell-based. The following applies: Homo sapiens, AsPC-1 cells; for IC50: ASPC1, 3 h, 3 hr compound incubation; for inhibition at 0.1 µM: ASPC1, single point at 100 nM, 3 hrs compound incubation.
The mark [1] stands for this setting: 3 hour compound incubation, Cisbio pERK HTRF.
Setting [2] is: MKN-1, 3 hour compound incubation, Cisbio pERK HTRF.

Sequence of KRas G12V (P01116 1-169 isoform P01116-2 G12V): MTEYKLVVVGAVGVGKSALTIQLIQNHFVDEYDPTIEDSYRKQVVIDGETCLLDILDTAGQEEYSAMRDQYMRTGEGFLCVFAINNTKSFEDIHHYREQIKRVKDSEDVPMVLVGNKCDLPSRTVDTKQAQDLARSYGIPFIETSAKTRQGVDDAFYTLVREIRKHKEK
Sequence of KRas G12D (P01116 1-169 isoform P01116-2 G12D): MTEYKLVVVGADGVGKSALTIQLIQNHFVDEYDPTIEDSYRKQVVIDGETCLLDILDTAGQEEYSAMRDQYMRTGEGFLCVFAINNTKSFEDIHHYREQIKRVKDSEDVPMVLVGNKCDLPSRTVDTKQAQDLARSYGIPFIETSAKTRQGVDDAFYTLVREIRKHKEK
Sequence of KRas G12R (P01116 1-169 isoform P01116-2 G12R): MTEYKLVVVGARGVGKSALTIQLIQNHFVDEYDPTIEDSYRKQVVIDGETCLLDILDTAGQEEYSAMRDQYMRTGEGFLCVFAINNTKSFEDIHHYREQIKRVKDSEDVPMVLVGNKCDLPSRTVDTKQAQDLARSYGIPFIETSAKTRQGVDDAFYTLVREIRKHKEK

As to `C[C@@H]1C[C@@H]1c1c(Cl)cc(O)cc1N1CCc2c(nc(OC[C@@]34CCCN3C[C@H](F)C4)nc2N2CCC[C@]3(CNS(=O)(=O)N3)C2)C1` (stereo in doubt) [Example 654, (R)-7-(7-(3-chloro-5-hydroxy-2-(cis-2-methylcyclopropyl)phenyl)-2-(((2R,7aS)-2-fluorotetrahydro-1H-pyrrolizin-7a(5H)-yl)methoxy)-5,6,7,8-tetrahydropyrido[3,4-d]pyrimidin-4-yl)-2-thia-1,3,7-triazaspiro[4.5]decane 2,2-dioxide], the IC50 (as a rule, the concentration at which inhibition is half-maximal) came to 3 nM on KRas G12R; 2660 nM in the assay on PSN1 cells (3 hr compound incubation); 131 nM in the assay with H460 cells; 72 nM in the assay on H358 cells; 38.7 nM in the assay with MKN1 cells (MKN-1, 3 hr compound incubation); 2 nM at KRas G12D. Also, the IC50 was 323 nM in the assay on H727 cells; less than 2 nM at KRas G12V; 191 nM in the assay with HCT116 cells; 334 nM in the assay on A549 cells; 197 nM in the assay with ASPC1 cells.

As for `CCc1c(F)ccc2cc(O)cc(N3CCc4c(nc(OC[C@@]56CCCN5C[C@H](F)C6)nc4N4CCCn5nc(C(=O)N6CCC7CC6CN7)cc5C4)C3)c12` (stereo partly drawn) [Example 235, 2,6-diazabicyclo[3.2.1]octan-2-yl(5-(7-(8-ethyl-7-fluoro-3-hydroxynaphthalen-1-yl)-2-(((2R,7aS)-2-fluorohexahydro-1H-pyrrolizin-7a-yl)methoxy)-5,6,7,8-tetrahydropyrido[3,4-d]pyrimidin-4-yl)-5,6,7,8-tetrahydro-4H-pyrazolo[1,5-a][1,4]diazepin-2-yl)methanone], the IC50 was less than 2 nM at KRas G12R; more than 10000 nM in the assay with PSN1 cells (setting [1]); 294 nM in the assay on MKN1 cells (setting [2]); 2 nM on KRas G12D; 302 nM with H727 cells (Cisbio pERK HTRF); less than 2 nM on KRas G12V. In the assay on ASPC1 cells (Cisbio pERK HTRF), this compound gave an IC50 of 52 nM. The inhibition – broadly, the relative decrease from the control value, in per cent – at 0.1 µM was 2% in the assay with H460 cells; 8% with H358 cells; -5% with H727 cells; 5% with HCT116 cells; 13% in the assay with A549 cells; 30% in the assay on ASPC1 cells.

Turning to `CCc1c(F)ccc2cc(O)cc(N3CCc4c(nc(OC[C@@]56CCCN5C[C@H](F)C6)nc4N4CCCn5nc(C(=O)N6CC7(CCCN7)C6)cc5C4)C3)c12` [Example 277, (5-(7-(8-ethyl-7-fluoro-3-hydroxynaphthalen-1-yl)-2-(((2R,7aS)-2-fluorohexahydro-1H-pyrrolizin-7a-yl)methoxy)-5,6,7,8-tetrahydropyrido[3,4-d]pyrimidin-4-yl)-5,6,7,8-tetrahydro-4H-pyrazolo[1,5-a][1,4]diazepin-2-yl)(2,5-diazaspiro[3.4]octan-2-yl)methanone], the IC50 at KRas G12R is less than 2 nM; in the assay with PSN1 cells (setting [1]), more than 10000 nM; in the assay with MKN1 cells (setting [2]), 41.7 nM; at KRas G12D, less than 2 nM; in the assay with H727 cells (Cisbio pERK HTRF), 210 nM; at KRas G12V it was less than 2 nM. For the same compound, in the assay on ASPC1 cells (Cisbio pERK HTRF), the IC50 turned out to be 37 nM. For the same compound, the inhibition at 0.1 µM in the assay on H460 cells is 12%; with H358 cells, 64%; in the assay with HCT116 cells, -2%; in the assay on A549 cells it was 25%.

As for `CCc1c(F)ccc2cc(O)cc(N3CCc4c(nc(OC[C@@]56CCCN5C[C@H](F)C6)nc4N4CCCn5nc(C(=O)N6CCC7(CCN7)C6)cc5C4)C3)c12` (stereo partly drawn) [Example 278, (5-(7-(8-ethyl-7-fluoro-3-hydroxynaphthalen-1-yl)-2-(((2R,7aS)-2-fluorohexahydro-1H-pyrrolizin-7a-yl)methoxy)-5,6,7,8-tetrahydropyrido[3,4-d]pyrimidin-4-yl)-5,6,7,8-tetrahydro-4H-pyrazolo[1,5-a][1,4]diazepin-2-yl)(1,6-diazaspiro[3.4]octan-6-yl)methanone], the IC50 is less than 2 nM at KRas G12R; more than 10000 nM in the assay on PSN1 cells (setting [1]); 156 nM with MKN1 cells (setting [2]); less than 2 nM at KRas G12D; 659 nM with H727 cells (Cisbio pERK HTRF); less than 2 nM at KRas G12V. In the assay with ASPC1 cells (Cisbio pERK HTRF), this compound had an IC50 of 68 nM. In addition, the inhibition at 0.1 µM in the assay with H460 cells is -10%; in the assay on H358 cells it was 12%; in the assay with HCT116 cells, -6%; with A549 cells, 22%.

For the compound `CCc1c(F)ccc2cc(O)cc(N3CCc4c(nc(OC[C@@]56CCCN5C[C@H](F)C6)nc4N4CCCn5nc(CC(=O)N(C)C)cc5C4)C3)c12` [Example 317, 2-(5-(7-(8-ethyl-7-fluoro-3-hydroxynaphthalen-1-yl)-2-(((2R,7aS)-2-fluorohexahydro-1H-pyrrolizin-7a-yl)methoxy)-5,6,7,8-tetrahydropyrido[3,4-d]pyrimidin-4-yl)-5,6,7,8-tetrahydro-4H-pyrazolo[1,5-a][1,4]diazepin-2-yl)-N,N-dimethylacetamide], the IC50 was 4 nM on KRas G12R; more than 10000 nM with PSN1 cells (setting [1]); 63 nM in the assay on MKN1 cells (setting [2]); 5 nM at KRas G12D; 327 nM with H727 cells (Cisbio pERK HTRF); 4 nM at KRas G12V. For the same compound, in the assay on ASPC1 cells (Cisbio pERK HTRF), the IC50 turned out to be 185 nM. Besides, the inhibition at 0.1 µM with H460 cells was found to be 1%; in the assay with H358 cells, 19%; with HCT116 cells, 13%; with A549 cells, 12%.

For `CCc1c(F)ccc2cc(O)cc(N3CCc4c(nc(OC[C@@]56CCCN5C[C@H](F)C6)nc4N4CCCn5nc(C(=O)NC)c(OC)c5C4)C3)c12` [Example 320, 5-(7-(8-ethyl-7-fluoro-3-hydroxynaphthalen-1-yl)-2-(((2R,7aS)-2-fluorohexahydro-1H-pyrrolizin-7a-yl)methoxy)-5,6,7,8-tetrahydropyrido[3,4-d]pyrimidin-4-yl)-3-methoxy-N-methyl-5,6,7,8-tetrahydro-4H-pyrazolo[1,5-a][1,4]diazepine-2-carboxamide], the IC50 on KRas G12R was less than 2 nM; in the assay on PSN1 cells (setting [1]), 1420 nM; in the assay on H460 cells (Cisbio pERK HTRF), 41 nM; in the assay with H358 cells (Cisbio pERK HTRF) it was 5 nM; with MKN1 cells (setting [2]) it was 4.2 nM; at KRas G12D, less than 2 nM. Moreover, the IC50 is 6 nM in the assay on H727 cells (Cisbio pERK HTRF); less than 2 nM on KRas G12V; 214 nM in the assay with HCT116 cells (Cisbio pERK HTRF); 20 nM in the assay with A549 cells (Cisbio pERK HTRF); 5 nM in the assay with ASPC1 cells (Cisbio pERK HTRF). Also, the inhibition at 0.1 µM is 56% in the assay on H460 cells; 103% in the assay with H358 cells; 70% with H727 cells; 17% in the assay on HCT116 cells; 90% in the assay on A549 cells; 99% in the assay on ASPC1 cells.

In the case of `CCc1c(F)ccc2cc(O)cc(N3CCc4c(nc(OC[C@@]56CCCN5C[C@H](F)C6)nc4N4CCCn5nc(CNS(=O)(=O)N(C)C)cc5C4)C3)c12` [Example 336, 7-(8-ethyl-7-fluoro-3-hydroxy-1-naphthyl)-2-(((2R,7aS)-2-fluorotetrahydro-1H-pyrrolizin-7a(5H)-yl)methoxy)-4-(2-((dimethylsulfamoyl)amino)methyl-7,8-dihydro-4H-pyrazolo[1,5-a][1,4]diazepin-5(6H)-yl)-6,8-dihydro-5H-pyrido[3,4-d]pyriimidine], the IC50 at KRas G12R was 7 nM; in the assay with PSN1 cells (setting [1]) it was more than 10000 nM; in the assay with MKN1 cells (setting [2]), 531 nM; on KRas G12D, 3 nM; in the assay with H727 cells (Cisbio pERK HTRF), 517 nM; on KRas G12V it was 8 nM. Half-maximal inhibition in the assay on ASPC1 cells (Cisbio pERK HTRF) (IC50) was put at 289 nM. The inhibition at 0.1 µM was 1% in the assay on H460 cells, -26% in the assay on H358 cells, -11% in the assay on HCT116 cells and -24% with A549 cells.
